Measured values published in ChEMBL document CHEMBL1201862, “PubChem BioAssay data set” (2004).
Calls of active or inactive are those of the source.

Key:
[1] = loss of viability in HepG2 cells – cell-based, CellTiter-Glo, cherry-picked, cytotoxicity control for Shn3 inhibitor project, dose response (AID 624134); assay type: functional
[2] = target: Luciferin 4-monooxygenase (Photinus pyralis, UniProt P08659); experiment: inhibition of purified Photinus pyralis luciferase – biochemical, luminescence, dose response (AID 1891)
Chain of Luciferin 4-monooxygenase (P08659 whole entry): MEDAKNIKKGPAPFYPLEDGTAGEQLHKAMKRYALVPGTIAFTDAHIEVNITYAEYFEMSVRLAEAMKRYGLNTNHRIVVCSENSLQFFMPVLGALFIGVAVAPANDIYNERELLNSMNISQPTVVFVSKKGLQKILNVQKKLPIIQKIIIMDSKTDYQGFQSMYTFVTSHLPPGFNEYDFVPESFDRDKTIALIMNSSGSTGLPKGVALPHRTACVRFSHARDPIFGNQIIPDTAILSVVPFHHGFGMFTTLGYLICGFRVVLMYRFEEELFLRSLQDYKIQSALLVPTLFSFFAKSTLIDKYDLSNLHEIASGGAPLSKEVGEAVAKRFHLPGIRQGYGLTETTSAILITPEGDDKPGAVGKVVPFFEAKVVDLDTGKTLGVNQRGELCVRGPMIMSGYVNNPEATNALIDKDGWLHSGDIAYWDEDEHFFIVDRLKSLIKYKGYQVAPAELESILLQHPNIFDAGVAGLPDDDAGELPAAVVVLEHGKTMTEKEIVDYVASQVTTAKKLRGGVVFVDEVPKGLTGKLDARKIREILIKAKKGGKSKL

[3] = non-specific 3'UTR reporter inhibition in Clone20-Shn3RL – cell-based, Renilla luciferase, cherry-picked, counter-screen for Shn3 inhibitor project, dose response (AID 624133); assay type: functional
[4] = target: T1, Microphthalmia-associated transcription factor (Homo sapiens, UniProt O75030); experiment: reducers of TRPM1 reporter luminescence, concentration series – cell-based, SK-MEL-5, cherry-picked, set 3, MITF inhibitor project, dose response (AID 493073); assay type: functional;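 note: SK-MEL-5 melanoma cells with luciferase driven by the MITF target TRPM1 promoter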
T1 sequence (O75030 whole entry): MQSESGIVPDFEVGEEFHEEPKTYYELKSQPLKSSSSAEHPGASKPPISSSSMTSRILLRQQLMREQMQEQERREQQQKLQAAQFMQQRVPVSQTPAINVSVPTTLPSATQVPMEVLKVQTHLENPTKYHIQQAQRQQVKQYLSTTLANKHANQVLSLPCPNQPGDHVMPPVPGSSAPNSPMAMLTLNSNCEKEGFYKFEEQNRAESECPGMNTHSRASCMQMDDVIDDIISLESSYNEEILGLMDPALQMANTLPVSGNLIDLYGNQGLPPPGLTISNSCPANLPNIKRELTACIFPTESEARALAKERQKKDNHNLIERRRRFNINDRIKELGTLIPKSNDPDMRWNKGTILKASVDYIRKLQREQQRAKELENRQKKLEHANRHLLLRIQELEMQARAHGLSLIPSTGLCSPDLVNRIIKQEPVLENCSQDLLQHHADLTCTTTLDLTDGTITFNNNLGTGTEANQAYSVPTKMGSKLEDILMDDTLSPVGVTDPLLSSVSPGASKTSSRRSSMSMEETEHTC

[5] = Luminescence Cell-Based Dose Confirmation HTS to Identify Inhibitors of Platelet Dense Granule Release. [Related pubchem assays: 1663 (Primary HTS), 1678 (Summary of Project)]; assay type: functional
[6] = reduction of Shn3 3'UTR-driven luciferase in osteoblasts – cell-based, Clone20 osteoblasts, firefly luciferase, cherry-picked, dose response (AID 624132); assay type: functional;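 note: firefly luciferase luminescence from reporter carrying the Shn3 3'UTR in osteoblasts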
Escherichia coli = experiment: microbe, parasite or virus in culture
A-375 = experiment: MITF: Counter assay: A375 proliferation Measured in Cell-Based System Using Plate Reader - 2084-03_Inhibitor_Dose_DryPowder_Activity. [Related pubchem assays (depositor defined):AID488944]; assay type: functional; conditions: Homo sapiens
X-box-binding protein 1 = target: T2, X-box-binding protein 1 (Homo sapiens, UniProt P17861); assay type: functional, Cricetulus griseus;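 note: confirmatory dose-response counter-screen serving a CHOP assay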
T2 sequence (P17861 whole entry): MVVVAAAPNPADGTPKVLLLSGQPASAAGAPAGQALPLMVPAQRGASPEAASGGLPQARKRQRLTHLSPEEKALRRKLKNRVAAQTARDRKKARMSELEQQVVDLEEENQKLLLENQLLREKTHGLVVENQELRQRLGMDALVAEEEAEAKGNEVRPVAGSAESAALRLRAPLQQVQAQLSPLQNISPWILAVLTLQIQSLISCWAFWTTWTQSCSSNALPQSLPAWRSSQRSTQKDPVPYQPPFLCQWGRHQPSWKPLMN

[7] = target: T3, Short transient receptor potential channel 4 (Mus musculus, UniProt Q9QUQ5); experiment: calcium entry via TRPC4 opening agents – cell-based, HEK293 TRPC4/mu-opioid, Fluo-4 calcium, dose response (AID 434937); assay type: functional
T3 sequence (Q9QUQ5 whole entry): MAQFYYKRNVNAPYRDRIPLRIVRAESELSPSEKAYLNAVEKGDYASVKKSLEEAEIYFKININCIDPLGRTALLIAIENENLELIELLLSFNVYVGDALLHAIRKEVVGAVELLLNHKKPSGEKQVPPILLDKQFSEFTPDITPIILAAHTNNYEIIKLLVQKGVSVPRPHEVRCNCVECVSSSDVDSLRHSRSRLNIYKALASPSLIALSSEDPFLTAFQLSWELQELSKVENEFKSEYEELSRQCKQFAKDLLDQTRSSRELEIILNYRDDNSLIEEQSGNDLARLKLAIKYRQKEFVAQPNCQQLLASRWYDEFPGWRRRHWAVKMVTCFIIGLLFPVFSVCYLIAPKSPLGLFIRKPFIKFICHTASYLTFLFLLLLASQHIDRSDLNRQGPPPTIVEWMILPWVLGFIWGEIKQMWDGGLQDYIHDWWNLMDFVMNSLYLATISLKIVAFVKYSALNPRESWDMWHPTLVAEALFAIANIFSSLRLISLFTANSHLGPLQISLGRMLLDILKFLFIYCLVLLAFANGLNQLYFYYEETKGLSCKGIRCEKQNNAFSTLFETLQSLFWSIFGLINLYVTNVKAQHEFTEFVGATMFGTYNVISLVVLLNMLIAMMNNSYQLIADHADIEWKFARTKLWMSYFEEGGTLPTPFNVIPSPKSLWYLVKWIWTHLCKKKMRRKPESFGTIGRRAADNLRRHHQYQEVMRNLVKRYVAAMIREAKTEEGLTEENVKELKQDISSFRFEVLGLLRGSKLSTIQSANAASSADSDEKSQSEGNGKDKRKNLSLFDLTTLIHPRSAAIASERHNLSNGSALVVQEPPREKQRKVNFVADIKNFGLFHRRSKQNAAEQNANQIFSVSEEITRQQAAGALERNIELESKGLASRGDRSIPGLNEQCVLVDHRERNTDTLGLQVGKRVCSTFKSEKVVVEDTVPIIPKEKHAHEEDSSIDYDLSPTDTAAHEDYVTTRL

[8] = target: T3, Short transient receptor potential channel 4; experiment: block of DAMGO-driven TRPC4 calcium entry – cell-based, HEK293 TRPC4/mu-opioid, Fluo-4 calcium, dose response (AID 434942); assay type: functional;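 note: potency of inhibitors blocking the TRPC4 calcium response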
[9] = fluconazole-exposed Candida albicans growth modulators – fluorescence, retest, confirmation (AID 2467); assay type: functional, cell-based
[10] = NIH-3T3 fibroblast cytotoxicity, dose response, cytotoxicity control, cell-based, fluorescence, Alamar Blue, secondary assay (AID 2327); assay type: functional;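 note: NIH-3T3 mouse fibroblasts cultured with fluconazole at 8 µg/mL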
[11] = target: Delta-type opioid receptor (Homo sapiens, UniProt P41143); experiment: Counterscreen for agonists of heterodimerization of the mu 1 (OPRM1) and delta 1 (OPRD1) opioid receptors: Luminescence-based cell-based high throughput dose response assay to identify agonists of OPRD1 homodimerization. [Related pubchem assays (depositor defined):AID504326, AID504355, AID504692, AID504904, AID504905]; assay type: functional
Chain of Delta-type opioid receptor (P41143 whole entry): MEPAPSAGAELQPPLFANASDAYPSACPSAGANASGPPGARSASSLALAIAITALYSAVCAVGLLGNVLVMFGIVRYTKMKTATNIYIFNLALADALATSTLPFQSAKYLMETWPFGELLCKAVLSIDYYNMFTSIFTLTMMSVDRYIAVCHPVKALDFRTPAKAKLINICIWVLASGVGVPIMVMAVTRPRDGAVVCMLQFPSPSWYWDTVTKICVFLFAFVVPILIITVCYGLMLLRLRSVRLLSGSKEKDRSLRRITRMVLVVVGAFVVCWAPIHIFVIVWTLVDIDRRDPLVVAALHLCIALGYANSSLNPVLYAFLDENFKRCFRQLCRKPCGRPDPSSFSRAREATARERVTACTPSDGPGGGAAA

[12] = target: 5-hydroxytryptamine receptor 5A (Homo sapiens, UniProt P47898); experiment: Counterscreen for agonists of OPRM1-OPRD1 heterodimerization: luminescence-based cell-based high throughput dose response assay to identify agonists of 5-hydroxytryptamine (serotonin) 5A receptor (HTR5A). [Related pubchem assays (depositor defined):AID504326, AID504355, AID504692, AID504904, AID504905]; assay type: functional
Chain of 5-hydroxytryptamine receptor 5A (P47898 whole entry): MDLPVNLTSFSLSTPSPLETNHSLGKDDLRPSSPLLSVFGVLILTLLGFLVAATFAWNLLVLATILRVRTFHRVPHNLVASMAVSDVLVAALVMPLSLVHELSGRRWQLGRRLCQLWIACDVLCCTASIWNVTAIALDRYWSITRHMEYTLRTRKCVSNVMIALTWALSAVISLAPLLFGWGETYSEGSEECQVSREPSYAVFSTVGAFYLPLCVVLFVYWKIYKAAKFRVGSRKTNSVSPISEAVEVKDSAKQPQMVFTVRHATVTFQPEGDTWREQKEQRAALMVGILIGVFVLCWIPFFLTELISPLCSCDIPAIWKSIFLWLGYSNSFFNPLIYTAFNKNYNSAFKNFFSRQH

Mu-type opioid receptor = Mu-type opioid receptor (Homo sapiens, UniProt P35372); experiment: Counterscreen for agonists of heterodimerization of the mu 1 (OPRM1) and delta 1 (OPRD1) opioid receptors: Luminescence-based cell-based high throughput dose response assay to identify agonists of OPRM1 homodimerization.; assay type: functional;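 note: U2OS cells expressing OPRM1 and beta-arrestin as split beta-galactosidase partners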
Chain of Mu-type opioid receptor (P35372 whole entry): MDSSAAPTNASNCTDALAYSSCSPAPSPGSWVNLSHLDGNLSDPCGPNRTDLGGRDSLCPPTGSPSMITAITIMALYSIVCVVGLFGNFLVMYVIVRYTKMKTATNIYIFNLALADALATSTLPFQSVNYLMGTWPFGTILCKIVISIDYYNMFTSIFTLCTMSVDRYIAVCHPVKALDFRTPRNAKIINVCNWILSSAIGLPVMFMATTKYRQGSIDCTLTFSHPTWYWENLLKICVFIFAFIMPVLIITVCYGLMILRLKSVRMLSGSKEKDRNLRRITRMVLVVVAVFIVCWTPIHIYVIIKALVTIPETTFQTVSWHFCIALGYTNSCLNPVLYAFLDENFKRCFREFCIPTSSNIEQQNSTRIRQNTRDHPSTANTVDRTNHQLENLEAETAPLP

[13] = HEK-293T viability loss after treatment – luminescence, T-cell screen hits, cytotoxicity control for TCR NF-kB inhibitor project, dose response (AID 489026); assay type: functional, cell-based;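 note: cells exposed to compound about 14 hours before the viability readout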

In the case of O=C(/C=C/Nc1ccccc1Br)c1ccccn1, the AC50 [1] was 47.7 µM (active), the EC50 [2] was 1.34 µM (active) and the AC50 [3] was 30.4 µM (active). For the same compound, the AC50 [4] was 0.899 µM (active), the EC50 [5] was 4.02 µM (active) and the AC50 [6] was 1.8 µM (active). The AC50 (Escherichia coli) was > 150 µM (inactive) and the AC50 (A-375) was 27.6 µM (active).

For CC(C)c1ccccc1NC(=O)Cn1c(/C=C/c2ccccc2)nc2ccccc21, the “Absolute IC50 (XBP1)” value (X-box-binding protein 1) was 10 µM.

With Cc1cc(NCc2ccccc2)nc2ccccc12 the EC50 [7] was 8.41 µM (active) and the EC50 [8] was 3.35 µM (active).

For C=CCSc1nc(-c2ccc(OCCCC)cc2)n[nH]1, the EC50 [9] was > 38 µM (not active), the EC50 [10] was > 150 µM (inactive) and the “Absolute IC50 (XBP1)” value (X-box-binding protein 1) was < 10 µM.

With Cc1ccc(C)c(-n2cc(CNCCc3cnccn3)c(-c3ccccc3)n2)c1 the EC50 [11] was > 92.5 µM (inactive), the EC50 [7] was 0.267 µM (active) and the EC50 [12] was > 92.5 µM (inactive). For the same compound, the EC50 (Mu-type opioid receptor) was > 92.5 µM (inactive).

With O=C1CC(c2cc(F)ccc2F)c2cc3c(cc2N1)CCC3 (centres undefined) the IC50 [13] was > 80 µM (inactive).
